Patent publication US11459296B2, “Antibacterial compounds” (INFEX Therapeutics Limited, priority 2018, dated 2022)
Structures can show the parent of a compound that is named as a salt.

Key:
[1] = Cytotoxicity Assay (CellTiter-Glo); assay type: cell-based; settings: human, Hep G2 cells (ATCC HB-8065); 24 h exposure, cell viability; read-out: HepG2 CC50
Description: Cytotoxicity was evaluated in human Hep G2 cells (ATCC HB-8065) seeded at a density of 2×10^5 cells per well and incubated for 24 h at 37° C., 5% CO2. Cells were exposed to a doubling dilution series of test article. After 24 h exposure, the viability of the cells was determined using CellTiter-Glo® (Promega, Wis., USA) according to the manufacturer's instructions. Results are reported as the concentration of test article required to reduce cell viability by 50% (CC50).

[2] = biological target: NDM-1 (Klebsiella pneumoniae, UniProt C7C422); assay: metallo-β-lactamase inhibition assay (nitrocefin); assay type: biochemical; settings: 1.5 nM NDM-1, 100 μM nitrocefin, 37° C., pH 7.5
Description: Compounds of the invention were tested in a metallo-β-lactamase inhibition assay to investigate mechanism of action of the compounds. Results are reported as the concentration of test article required to inhibit enzyme activity by 50% (IC50).
Inhibition of metallo-β-lactamase enzyme function was performed at 37° C. in buffer at pH 7.5 (50 mM HEPES, 150 mM NaCl, 0.1 mM ZnSO4, 20 μg/mL PEG4000), containing 1.5 nM NDM-1, 100 μM nitrocefin, and a range of concentrations of compound. Absorbance at 490 nm was measured using a BMG LABTECH FLUOstar Omega microplate reader every minute for 30 minutes. IC50S were determined from the average increase in OD per minute versus the Log 10 concentration of compound using GraphPad Prism.

[3] = test system: A. baumannii SG698 NDM-1; assay: Imipenem combination MIC, broth microdilution; assay type: cell-based; settings: imipenem only (baseline)
Description: (§1) MICs were determined by exposing bacteria to serial dilutions of antibacterial agents in MHB-II (cation-adjusted Mueller-Hinton Broth pH 7.4) according to Clinical and Laboratory Standards Institute (CLSI) broth microdilution guidelines (Cockerill et al., 2012).
(§2) Combination MIC were performed as described for MIC determinations with the addition of 4 mg/L test article to MHB-II.
(§3) Compounds of the invention were also tested in combination with imipenem.

[4] = test system: K. pneumoniae ATCC BAA2146 NDM-1; assay: Imipenem combination MIC, broth microdilution; assay type: cell-based; settings: imipenem only (baseline)
Description: as §1, §2, §3

[5] = test system: E. coli NCTC13476 IMP; assay: Imipenem combination MIC, broth microdilution; assay type: cell-based; settings: imipenem only (baseline)
Description: as §1, §2, §3

[6] = test system: K. pneumoniae NCTC13440 VIM-1; assay: Imipenem combination MIC, broth microdilution; assay type: cell-based; settings: imipenem only (baseline)
Description: as §1, §2, §3

[7] = test system: E. coli ATCCBAA-2452 NDM-1; assay: Imipenem combination MIC, broth microdilution; assay type: cell-based; settings: imipenem only (baseline)
Description: as §1, §2, §3

[8] = test system: A. baumannii SG698 NDM-1; assay: Meropenem combination MIC, broth microdilution; assay type: cell-based; settings: meropenem only (baseline)
Description: as §1, §2

[9] = test system: K. pneumoniae ATCC BAA2146 NDM-1; assay: Meropenem combination MIC, broth microdilution; assay type: cell-based; settings: meropenem only (baseline)
Description: as §1, §2

[10] = test system: E. coli NCTC13476 IMP; assay: Meropenem combination MIC, broth microdilution; assay type: cell-based; settings: meropenem only (baseline)
Description: as §1, §2

[11] = test system: K. pneumoniae NCTC13440 VIM-1; assay: Meropenem combination MIC, broth microdilution; assay type: cell-based; settings: meropenem only (baseline)
Description: as §1, §2

[12] = test system: E. coli ATCCBAA-2452 NDM-1; assay: Meropenem combination MIC, broth microdilution; assay type: cell-based; settings: meropenem only (baseline)
Description: as §1, §2

[13] = test system: K. pneumoniae NCTC13439 VIM-1; assay: Meropenem combination MIC, broth microdilution; assay type: cell-based; settings: meropenem only (baseline)
Description: as §1, §2

Sequence of NDM-1 (C7C422 whole entry, looked up, species assumed): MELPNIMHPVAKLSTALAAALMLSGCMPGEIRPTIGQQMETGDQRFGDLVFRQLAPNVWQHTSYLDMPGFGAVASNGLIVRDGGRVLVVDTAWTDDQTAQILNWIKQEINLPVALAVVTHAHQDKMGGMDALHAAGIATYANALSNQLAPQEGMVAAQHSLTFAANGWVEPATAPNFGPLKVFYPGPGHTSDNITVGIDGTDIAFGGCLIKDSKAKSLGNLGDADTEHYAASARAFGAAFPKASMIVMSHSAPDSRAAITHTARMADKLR

SMILES: NS(=O)(=O)n1ccc(-c2ccc(F)cc2)c1C(=O)O [Example 18, 3-(4-Fluorophenyl)-1-sulfamoyl-pyrrole-2-carboxylic acid, sodium salt]
- CC50 at 24 h [1]: > 256 µg/mL
- IC50 [2]: 0.725 µM

SMILES: NS(=O)(=O)n1ccc(-c2cccc(F)c2)c1C(=O)O [Example 19, 3-(3-Fluorophenyl)-1-sulfamoyl-pyrrole-2-carboxylic acid]
- CC50 at 24 h [1]: > 256 µg/mL
- IC50 [2]: 1.53 µM

SMILES: Nc1ncc(-c2ccn(S(N)(=O)=O)c2C(=O)O)cc1F [Example 21, 3-(6-Amino-5-fluoro-3-pyridyl)-1-sulfamoyl-pyrrole-2-carboxylic acid]
- CC50 at 24 h [1]: > 256 µg/mL
- IC50 [2]: 3.36 µM

SMILES: Nc1cncc(-c2ccn(S(N)(=O)=O)c2C(=O)O)c1 [Example 22, 3-(5-Amino-3-pyridyl)-1-sulfamoyl-pyrrole-2-carboxylic acid]
- CC50 at 24 h [1]: > 256 µg/mL
- IC50 [2]: 2.09 µM

SMILES: NS(=O)(=O)n1ccc(-c2ccc(NS(=O)(=O)C3CC3)cc2)c1C(=O)O [Example 23, 3-[4-(Cyclopropylsulfonylamino)phenyl]-1-sulfamoyl-pyrrole-2-carboxylic acid]
- CC50 at 24 h [1]: > 256 µg/mL
- IC50 [2]: 0.548 µM

SMILES: NS(=O)(=O)n1ccc(-c2ccc(C3CCNCC3)cc2)c1C(=O)O [Example 34, 3-[4-(Piperidin-4-yl)phenyl]-1-sulfamoyl-1H-pyrrole-2-carboxylic acid hydrochloride]
- CC50 at 24 h [1]: > 256 µg/mL
- IC50 [2]: 0.151 µM

SMILES: NCCNS(=O)(=O)c1ccc(-c2ccn(S(N)(=O)=O)c2C(=O)O)cc1 [Example 36, 3-{4-[(2-Aminoethyl)sulfamoyl]phenyl}-1-sulfamoyl-1H-pyrrole-2-carboxylic acid]
- CC50 at 24 h [1]: > 256 µg/mL
- IC50 [2]: 1.01 µM

SMILES: Cn1c(N)nc2c(-c3ccn(S(N)(=O)=O)c3C(=O)O)cccc21 [Example 46, 3-(2-Amino-1-methyl-benzimidazol-4-yl)-1-sulfamoyl-pyrrole-2-carboxylic acid hydrochloride]
- CC50 at 24 h [1]: > 256 µg/mL
- IC50 [2]: 2.79 µM

SMILES: NS(=O)(=O)n1ccc(-c2ccc(=O)[nH]c2)c1C(=O)O [Example 52, 3-(6-Oxo-1,6-dihydropyridin-3-yl)-1-sulfamoyl-1H-pyrrole-2-carboxylic acid, Sodium Salt]
- CC50 at 24 h [1]: > 256 µg/mL
- IC50 [2]: 2.69 µM

SMILES: CC(=O)N1CCC(c2ccn(S(N)(=O)=O)c2C(=O)O)CC1 [Example 58, 3-(1-Acetylpiperidin-4-yl)-1-sulfamoyl-1H-pyrrole-2-carboxylic acid]
- CC50 at 24 h [1]: > 256 µg/mL
- IC50 [2]: 1.31 µM

SMILES: NCC(=O)N1CCC(c2ccn(S(N)(=O)=O)c2C(=O)O)CC1 [Example 62, 3-[1-(2-Aminoacetyl)-4-piperidyl]-1-sulfamoyl-pyrrole-2-carboxylic acid]
- CC50 at 24 h [1]: > 256 µg/mL
- IC50 [2]: 1.3 µM

SMILES: NS(=O)(=O)n1ccc(OCC2CC2)c1C(=O)O [Example 72, 3-(Cyclopropylmethoxy)-1-sulfamoyl-pyrrole-2-carboxylic acid, Sodium Salt]
- CC50 at 24 h [1]: > 256 µg/mL
- IC50 [2]: 3.89 µM

SMILES: NS(=O)(=O)n1ccc(-n2cccc2)c1C(=O)O [Example 73, 3-Pyrrol-1-yl-1-sulfamoyl-pyrrole-2-carboxylic acid, Sodium Salt]
- CC50 at 24 h [1]: > 256 µg/mL
- IC50 [2]: 2.57 µM

SMILES: Cn1cc(-c2ccn(S(N)(=O)=O)c2-c2nnn[nH]2)cn1 [Example 76, 3-(1-Methyl-1H-pyrazol-4-yl)-2-(1H-tetrazol-5-yl)-1H-pyrrole-1-sulfonamide]
- CC50 at 24 h [1]: > 256 µg/mL
- IC50 [2]: 1.18 µM

SMILES: Nc1ccc(-c2ccn(S(N)(=O)=O)c2-c2nnn[nH]2)cn1 [Example 77, 3-(6-Aminopyridin-3-yl)-2-(1H-tetrazol-5-yl)-1H-pyrrole-1-sulfonamide]
- CC50 at 24 h [1]: > 256 µg/mL
- IC50 [2]: 0.506 µM

SMILES: C[C@@H](O)[C@H]1C(=O)N2C(C(=O)O)=C(SCCN=CN)C[C@H]12 [Imipenem, imipenem]
- Imipenem MIC IV A. baumannii SG698 NDM-1 [3]: F (F≤80)
- Imipenem MIC III K. pneumoniae ATCC BAA2146 NDM-1 [4]: E (E≤40)
- Imipenem MIC II E. coli NCTC13476 IMP [5]: C (C≤5)
- Imipenem MIC V K. pneumoniae NCTC13440 VIM-1 [6]: D (D≤10)
- Imipenem MIC I E. coli ATCCBAA-2452 NDM-1 [7]: D (D≤10)

SMILES: C[C@@H](O)[C@H]1C(=O)N2C(C(=O)O)=C(S[C@@H]3CN[C@H](C(=O)N(C)C)C3)[C@H](C)[C@H]12 [Meropenem, meropenem]
- Meropenem MIC (μg/mL) IV A. baumannii SG698 NDM-1 [8]: 8 µg/mL
- Meropenem MIC (μg/mL) III K. pneumoniae ATCC BAA2146 NDM-1 [9]: 16 µg/mL
- Meropenem MIC (μg/mL) II E. coli NCTC13476 IMP [10]: 4 µg/mL
- Meropenem MIC (μg/mL) V K. pneumoniae NCTC13440 VIM-1 [11]: 1 µg/mL
- Meropenem MIC (μg/mL) I E. coli ATCCBAA-2452 NDM-1 [12]: 1 µg/mL
- Meropenem MIC (μg/mL) VII K. pneumoniae NCTC13439 VIM-1 [13]: 0.5 µg/mL
